Tests used:
Experiment in all cases: cell viability relative to untreated control (ex vivo patient spheroids); higher = less cytotoxic
Conditions in all cases: 72 h
Gem031 = test system: Gem031 (ex vivo spheroids of an HRD-negative high-grade serous ovarian cancer)
Experimental: (§1)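 Ex vivo 3D spheroid cultures from dissociated tumours of HGSOC patients (DET3CT platform) were treated for 72 h with dose matrices of carboplatin combined with birinapant or vorinostat (nM). Live (TMRM) and dead (POPO-1) cells were imaged and viability was expressed as % of untreated control.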

Gem105 = test system: Gem105 (ex vivo spheroids of an HRD-negative high-grade serous ovarian cancer)
Experimental: as §1

Gem119 = test system: Gem119 (ex vivo spheroids of an HRD-positive high-grade serous ovarian cancer)
Experimental: as §1

Gem129 = test system: Gem129 (ex vivo spheroids of an HRD-positive high-grade serous ovarian cancer)
Experimental: as §1

Gem243 = test system: Gem243 (ex vivo spheroids of an HRD-positive high-grade serous ovarian cancer)
Experimental: as §1

O=C(O)C1(C(=O)O)CCC1.[NH2-].[NH2-].[Pt+2] [Carboplatin] + CC[C@H](NC(=O)[C@H](C)NC)C(=O)N1C[C@@H](O)C[C@H]1Cc1c(-c2[nH]c3cc(F)ccc3c2C[C@@H]2C[C@H](O)CN2C(=O)[C@H](CC)NC(=O)[C@H](C)NC)[nH]c2cc(F)ccc12 [Birinapant]
cell viability [%]
Conditions | partner drug concentration 0 nM | partner drug concentration 0.1 nM | partner drug concentration 1 nM | partner drug concentration 10 nM | partner drug concentration 100 nM | partner drug concentration 1000 nM
Gem031, carboplatin concentration 10 nM | – | 93 | 91.2 | 96 | 55.3 | 25.3
Gem031, carboplatin concentration 100 nM | – | 98.1 | 92.1 | 88.6 | 61.2 | 26.3
Gem031, carboplatin concentration 1000 nM | – | 98.6 | 91.8 | 93.6 | 56.8 | 24.8
Gem031, carboplatin concentration 10000 nM | 79.2 | 87 | 97.5 | 77.6 | 46.3 | 15.5
Gem031, carboplatin concentration 100000 nM | 26.3 | 26.1 | 27.6 | 22.9 | 11.4 | 3.6
Gem105, carboplatin concentration 10 nM | – | 102 | 90.8 | 94.9 | 105 | 72.5
Gem105, carboplatin concentration 100 nM | – | 102 | 82 | 100 | 89.4 | 79.4
Gem105, carboplatin concentration 1000 nM | – | 110 | 89.4 | 109 | 89.2 | 87.6
Gem105, carboplatin concentration 10000 nM | 91.9 | 97.7 | 83.8 | 92.5 | 80 | 81.6
Gem105, carboplatin concentration 100000 nM | 38.7 | 41.1 | 51.4 | 42.1 | 30.3 | 27.6
Gem119, carboplatin concentration 10 nM | – | 83.3 | 107 | 102 | 90.8 | 67.6
Gem119, carboplatin concentration 100 nM | – | 83.6 | 112 | 74.4 | 90.8 | 66.8
Gem119, carboplatin concentration 1000 nM | – | 111 | 107 | 100 | 117 | 86
Gem119, carboplatin concentration 10000 nM | 112 | 96.4 | 72.9 | 116 | 110 | 81.3
Gem119, carboplatin concentration 100000 nM | 75.9 | 65.3 | 86.1 | 54.4 | 69.5 | 62.6
Gem129, carboplatin concentration 10 nM | – | 105 | 82.3 | 101 | 87.1 | 76.2
Gem129, carboplatin concentration 100 nM | – | 94.9 | 97.3 | 96 | 89.5 | 96.1
Gem129, carboplatin concentration 1000 nM | – | 96.4 | 100 | 92.5 | 86.2 | 73.2
Gem129, carboplatin concentration 10000 nM | 80.4 | 86.7 | 95.8 | 86.7 | 90.5 | 67.4
Gem129, carboplatin concentration 100000 nM | 57.5 | 57.3 | 31.2 | 29.8 | 27.8 | 19.6
Gem243, carboplatin concentration 10 nM | – | 92.7 | 105 | 80.2 | 52.3 | 13.7
Gem243, carboplatin concentration 100 nM | – | 108 | 105 | 84.7 | 41.3 | 15.9
Gem243, carboplatin concentration 1000 nM | – | 95.4 | 94.8 | 93.9 | 45.3 | 15.2
Gem243, carboplatin concentration 10000 nM | 89.9 | 90.9 | 77.3 | 82.9 | 42.4 | 13.9
Gem243, carboplatin concentration 100000 nM | 23.6 | 28.8 | 24.9 | 14 | 7.4 | 6

O=C(O)C1(C(=O)O)CCC1.[NH2-].[NH2-].[Pt+2] [Carboplatin] + O=C(CCCCCCC(=O)Nc1ccccc1)NO [Vorinostat]
cell viability [%]
Conditions | partner drug concentration 0 nM | partner drug concentration 1 nM | partner drug concentration 10 nM | partner drug concentration 100 nM | partner drug concentration 1000 nM | partner drug concentration 10000 nM
Gem031, carboplatin concentration 10 nM | 87.9 | 97.2 | 94 | 90.4 | 85.1 | 89.4
Gem031, carboplatin concentration 100 nM | 110 | 97.1 | 101 | 95.1 | 92.6 | 98.7
Gem031, carboplatin concentration 1000 nM | 88 | 96.9 | 104 | 100 | 93.3 | 64.1
Gem031, carboplatin concentration 10000 nM | 79.2 | 97.2 | 90.6 | 92.2 | 78.4 | 38.7
Gem031, carboplatin concentration 100000 nM | 26.3 | 31.4 | 30.1 | 22.9 | 16.9 | 14.6
Gem105, carboplatin concentration 10 nM | 105 | 82.6 | 99.6 | 94.3 | 86.4 | 33.3
Gem105, carboplatin concentration 100 nM | 103 | 90.7 | 96.2 | 93.6 | 84.9 | 34.5
Gem105, carboplatin concentration 1000 nM | 89.2 | 102 | 93.5 | 112 | 84.8 | 39.9
Gem105, carboplatin concentration 10000 nM | 91.9 | 105 | 93.4 | 100 | 79.4 | 36
Gem105, carboplatin concentration 100000 nM | 38.7 | 52.6 | 54 | 53.8 | 31.9 | 10.5
Gem119, carboplatin concentration 10 nM | 102 | 90 | 102 | 93.8 | 93 | 26.9
Gem119, carboplatin concentration 100 nM | 124 | 105 | 103 | 118 | 94.6 | 45.7
Gem119, carboplatin concentration 1000 nM | 99.4 | 110 | 92 | 110 | 92.7 | 30.3
Gem119, carboplatin concentration 10000 nM | 112 | 93.7 | 96.1 | 70.3 | 100 | 17.2
Gem119, carboplatin concentration 100000 nM | 75.9 | 50.1 | 81.2 | 44.7 | 58.9 | 9.6
Gem129, carboplatin concentration 10 nM | 95.8 | 104 | 37.5 | 107 | 87.6 | 80.2
Gem129, carboplatin concentration 100 nM | 82.8 | 104 | 102 | 97.6 | 91.9 | 77.7
Gem129, carboplatin concentration 1000 nM | 86 | 109 | 108 | 98.1 | 81.2 | 77.3
Gem129, carboplatin concentration 10000 nM | 80.4 | 97.8 | 90.4 | 90.4 | 87.5 | 59.6
Gem129, carboplatin concentration 100000 nM | 57.5 | 35.8 | 41.7 | 33.9 | 25.8 | 3.4
Gem243, carboplatin concentration 10 nM | 90.3 | 88.4 | 82.3 | 101 | 67.9 | 19.7
Gem243, carboplatin concentration 100 nM | 87.3 | 98 | 91.7 | 90.8 | 74.3 | 13.3
Gem243, carboplatin concentration 1000 nM | 107 | 105 | 47.4 | 101 | 68.9 | 10.1
Gem243, carboplatin concentration 10000 nM | 89.9 | 95.3 | 101 | 104 | 42.1 | 10.4
Gem243, carboplatin concentration 100000 nM | 23.6 | 21.6 | 17 | 11.3 | 7.3 | 6.7

Reference: the supplement of paper PMC12420376
